Target: T1, glucocerebrosidase (Gcase) (Homo sapiens, UniProt P04062)
T1 construct: micellar solution containing 10 nM GCase and 100 nM saposin C
T1 sequence (P04062 40-536): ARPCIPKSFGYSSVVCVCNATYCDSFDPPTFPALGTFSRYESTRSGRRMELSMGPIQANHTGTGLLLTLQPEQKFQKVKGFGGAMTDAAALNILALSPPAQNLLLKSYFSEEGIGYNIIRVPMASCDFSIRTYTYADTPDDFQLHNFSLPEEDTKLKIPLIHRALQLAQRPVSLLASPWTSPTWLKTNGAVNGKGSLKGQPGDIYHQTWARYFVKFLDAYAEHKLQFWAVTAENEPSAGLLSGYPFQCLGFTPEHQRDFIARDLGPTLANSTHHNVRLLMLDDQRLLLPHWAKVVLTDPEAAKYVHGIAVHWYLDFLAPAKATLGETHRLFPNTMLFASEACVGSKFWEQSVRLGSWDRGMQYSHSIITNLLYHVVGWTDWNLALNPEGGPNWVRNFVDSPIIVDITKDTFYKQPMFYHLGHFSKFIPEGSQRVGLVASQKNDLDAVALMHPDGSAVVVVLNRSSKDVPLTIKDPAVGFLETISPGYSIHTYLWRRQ
Test: Glucocerebrosidase (Gcase) activation assay with 4-methylumbelliferyl-beta-D-glucopyranoside substrate, saposin C and phosphatidylserine/triton micelles, fluorescence readout
Format: biochemical
How it was run: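 Test compounds are first screened at 1.0 and 0.1 μM final, then titrated in 8 points (3-fold from 5 μM) against human GCase with saposin C in phosphatidylserine/triton X-100 micelles at pH 4.7. Reactions run 15 min at room temperature, with fluorescence read at 365/440 nm.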

| SMILES | Percent Gcase Activation, 0.1 μM Test Compound (test compound at 0.1 μM) | Percent Gcase Activation, 1 μM Test Compound (test compound at 1.0 μM) | Percent Gcase Activation, 0.1 μM Test Compound (0.1 μM test compound) | Percent Gcase Activation, 1 μM Test Compound (1 μM test compound) | further results |
| --- | --- | --- | --- | --- | --- |
| Cc1coc(-c2cc(C)n3ncc(C(=O)N[C@H](C4CC4)C(F)(F)F)c3n2)n1 [III-255] | ** (Gcase activation in the range of 10% up to 20%) | +++ (Gcase activation greater than 60%) |  |  |  |
| COCCOc1ccc(-c2cc(C)n3ncc(C(=O)NC(C)C(F)(F)F)c3n2)cc1F (centres unmarked) [III-298] |  |  | *** (greater than 20% Gcase activation) | +++ (Gcase activation greater than 60%) |  |
| CCCCO[C@H]1CC[C@H](NC(=O)c2cnn3c(C)cc(-c4cncc(Cl)c4)nc23)CC1 [III-293] |  |  | *** (greater than 20% Gcase activation) | +++ (Gcase activation greater than 60%) |  |
| Cc1cncc(-c2cc(C)n3ncc(C(=O)NC(C)C(F)(F)F)c3n2)c1 (centres unmarked) [III-282] | ** (Gcase activation in the range of 10% up to 20%) | +++ (Gcase activation greater than 60%) |  |  |  |
| Cc1cc(N2CC(C)(C)OC2=O)nc2c(C(=O)N[C@H](C3CC3)C(F)(F)F)cnn12 [III-358] |  |  | * (less than 10% Gcase activation) | ++ (Gcase activation in the range of 30% up to 60%) |  |
| Cc1cc(-c2ccc(F)cc2)n2nc(Cl)c(C(=O)N[C@@H](C)C3CC3)c2n1 [III-33] |  |  |  |  | Percent Gcase Activation, 0.1 μM Test Compound (0.1 μM test compound, Table 3A): * (less than 10% Gcase activation); Percent Gcase Activation, 1 μM Test Compound (1 μM test compound, Table 3A): ++ (Gcase activation in the range of 30% up to 60%) |
| Cc1cc(C)n2ncc(C(=O)Nc3ccc4c(c3)CCC4)c2n1 [IV-5] |  |  |  |  | Percent Gease Activation, 0.1 μM Test Compound (0.1 μM test compound, Table 4): ** (Gcase activation in the range of 10% up to 20%); Percent Gease Activation, 1 μM Test Compound (1 μM test compound, Table 4): +++ (Gcase activation greater than 60%) |
| Cc1cc(C)n2ncc(C(=O)N[C@@H](C3CC3)C(F)(F)F)c2n1 [III-11] |  |  |  |  | Percent Gcase Activation, 0.1 μM Test Compound (0.1 μM test compound, Table 3A): ** (Gcase activation in the range of 10% up to 20%); Percent Gcase Activation, 1 μM Test Compound (1 μM test compound, Table 3A): +++ (Gcase activation greater than 60%) |
| Cc1cc(C)n2ncc(C(=O)NC3(C4CC4)CC3)c2n1 [III-12] |  |  |  |  | Percent Gcase Activation, 0.1 μM Test Compound (0.1 μM test compound, Table 3A): * (less than 10% Gcase activation); Percent Gcase Activation, 1 μM Test Compound (1 μM test compound, Table 3A): + (less than 30% Gcase activation) |
| Cc1cc(-c2ccc3scnc3c2)nc2c(C(=O)NC(C)C(F)(F)F)cnn12 (centres unmarked) [III-220] | *** (greater than 20% Gcase activation) | +++ (Gcase activation greater than 60%) |  |  |  |
| Cc1cc(N2CCCCC2)n2ncc(C(=O)N[C@@H](C)C3CC3)c2n1 [III-30] |  |  |  |  | Percent Gcase Activation, 0.1 μM Test Compound (0.1 μM test compound, Table 3A): * (less than 10% Gcase activation); Percent Gcase Activation, 1 μM Test Compound (1 μM test compound, Table 3A): + (less than 30% Gcase activation) |
| Cc1cc(-c2cccc(Cl)n2)nc2c(C(=O)NC(C)C(F)(F)F)cnn12 (centres unmarked) [III-234] | *** (greater than 20% Gcase activation) | +++ (Gcase activation greater than 60%) |  |  |  |
| COc1cc(C#N)cc(-c2cc(C)n3ncc(C(=O)N[C@@H](C)C4CC4)c3n2)c1 [III-129] | *** (greater than 20% Gcase activation) | +++ (Gcase activation greater than 60%) |  |  |  |
| COc1ccc(F)cc1-c1cc(C)n2ncc(C(=O)NC(C)C(F)(F)F)c2n1 (centres unmarked) [III-194] | *** (greater than 20% Gcase activation) | +++ (Gcase activation greater than 60%) |  |  |  |
| Cc1cc(N2CCOCC2)nc2c(C(=O)NC(C)(C)C3CC3)cnn12 [III-59] |  |  |  |  | Percent Gcase Activation, 0.1 μM Test Compound (0.1 μM test compound, Table 3A): * (less than 10% Gcase activation); Percent Gcase Activation, 1 μM Test Compound (1 μM test compound, Table 3A): ++ (Gcase activation in the range of 30% up to 60%) |
| Cc1cc(N2CC(C(C)C)OC2=O)nc2c(C(=O)N[C@@H](C3CC3)C(F)(F)F)cnn12 (some centres unmarked) [III-318] |  |  | ** (Gcase activation in the range of 10% up to 20%) | +++ (Gcase activation greater than 60%) |  |
| Cc1cc(-c2cc(C)n3ncc(C(=O)N[C@@H](C)C4CC4)c3n2)sn1 [III-346] |  |  | ** (Gcase activation in the range of 10% up to 20%) | +++ (Gcase activation greater than 60%) |  |
| Cc1cc(-c2ccc(F)c(C(N)=O)c2)nc2c(C(=O)N[C@@H](C)C3CC3)cnn12 [III-160] | ** (Gcase activation in the range of 10% up to 20%) | +++ (Gcase activation greater than 60%) |  |  |  |
| Cc1nc2cc(-c3cc(C)n4ncc(C(=O)N[C@@H](C)C5CC5)c4n3)ccc2o1 [III-321] |  |  | *** (greater than 20% Gcase activation) | +++ (Gcase activation greater than 60%) |  |
| Cc1cc(-c2ccncc2)n2ncc(C(=O)NC(C)(C)C3CC3)c2n1 [III-21] |  |  |  |  | Percent Gcase Activation, 0.1 μM Test Compound (0.1 μM test compound, Table 3A): * (less than 10% Gcase activation); Percent Gcase Activation, 1 μM Test Compound (1 μM test compound, Table 3A): + (less than 30% Gcase activation) |
| COc1cccc(-c2cc(C)n3ncc(C(=O)N[C@@H](C)C4CC4)c3n2)c1 [III-57] |  |  |  |  | Percent Gcase Activation, 0.1 μM Test Compound (0.1 μM test compound, Table 3A): *** (greater than 20% Gcase activation); Percent Gcase Activation, 1 μM Test Compound (1 μM test compound, Table 3A): +++ (Gcase activation greater than 60%) |
| Cc1cc(C)n2nc(Cl)c(C(=O)N[C@@H](C)C3CC3)c2n1 [III-34] |  |  |  |  | Percent Gcase Activation, 0.1 μM Test Compound (0.1 μM test compound, Table 3A): * (less than 10% Gcase activation); Percent Gcase Activation, 1 μM Test Compound (1 μM test compound, Table 3A): + (less than 30% Gcase activation) |
| Cc1cc(-c2cccc(C#N)n2)nc2c(C(=O)NC(C3CC3)C(F)(F)F)cnn12 (centres unmarked) [III-133] | ** (Gcase activation in the range of 10% up to 20%) | +++ (Gcase activation greater than 60%) |  |  |  |
| Cc1cc(-c2cccc(F)c2C#N)nc2c(C(=O)N[C@@H](C)C3CC3)cnn12 [III-398] |  |  | *** (greater than 20% Gcase activation) | +++ (Gcase activation greater than 60%) |  |

Further lines, with some results ahead:

| Percent Gcase Activation, 0.1 μM Test Compound (test compound at 0.1 μM) | Percent Gcase Activation, 1 μM Test Compound (test compound at 1.0 μM) | Percent Gcase Activation, 0.1 μM Test Compound (0.1 μM test compound) | Percent Gcase Activation, 1 μM Test Compound (1 μM test compound) | SMILES | further results |
| --- | --- | --- | --- | --- | --- |
| *** (greater than 20% Gcase activation) | +++ (Gcase activation greater than 60%) |  |  | Cc1cc(-c2cccc(F)c2)nc2c(C(=O)NC(C3CC3)C(F)(F)F)cnn12 (centres unmarked) [III-111] |  |
|  |  | * (less than 10% Gcase activation) | + (less than 30% Gcase activation) | Cc1nsc(C)c1-c1cc(C)n2ncc(C(=O)N[C@H](C3CC3)C(F)(F)F)c2n1 [III-385] |  |
| *** (greater than 20% Gcase activation) | +++ (Gcase activation greater than 60%) |  |  | COc1cc(F)ccc1-c1cc(C)n2ncc(C(=O)NC(C)C(F)(F)F)c2n1 (centres unmarked) [III-150] |  |
|  |  | *** (greater than 20% Gcase activation) | +++ (Gcase activation greater than 60%) | Cc1cc(-c2cccnc2C(F)(F)F)nc2c(C(=O)N[C@H](C3CC3)C(F)(F)F)cnn12 [III-355] |  |
| * (less than 10% Gcase activation) | + (less than 30% Gcase activation) |  |  | Cc1cc(-c2cccc(-c3ncc[nH]3)c2)nc2c(C(=O)NC(C3CC3)C(F)(F)F)cnn12 (centres unmarked) [III-102] |  |
|  |  | *** (greater than 20% Gcase activation) | +++ (Gcase activation greater than 60%) | Cc1cc(-c2cc(C)n3ncc(C(=O)N[C@H](C4CC4)C(F)(F)F)c3n2)on1 [III-343] |  |
| *** (greater than 20% Gcase activation) | +++ (Gcase activation greater than 60%) |  |  | COc1cncc(-c2cc(C)n3ncc(C(=O)N[C@@H](C4CC4)C(F)(F)F)c3n2)c1 [III-267] |  |
| *** (greater than 20% Gcase activation) | +++ (Gcase activation greater than 60%) |  |  | Cc1cc(-c2cscc2C#N)nc2c(C(=O)NC(C3CC3)C(F)(F)F)cnn12 (centres unmarked) [III-188] |  |
| * (less than 10% Gcase activation) | +++ (Gcase activation greater than 60%) |  |  | Cc1cc(-c2cccc(Oc3ncccn3)c2)nc2c(C(=O)NC(C3CC3)C(F)(F)F)cnn12 (centres unmarked) [III-103] |  |
|  |  | *** (greater than 20% Gcase activation) | +++ (Gcase activation greater than 60%) | Cc1cc(-c2ccc(F)cc2)nc2c(C(=O)N[C@@H](C)C(F)(F)F)cnn12 [III-360] |  |
|  |  | * (less than 10% Gcase activation) | +++ (Gcase activation greater than 60%) | Cc1cc(-c2cccc3nc[nH]c23)nc2c(C(=O)NC(C3CC3)C(F)(F)F)cnn12 (centres unmarked) [III-308] |  |
| *** (greater than 20% Gcase activation) | +++ (Gcase activation greater than 60%) |  |  | Cc1cc(-n2ccc(F)n2)nc2c(C(=O)N[C@H](C3CC3)C(F)(F)F)cnn12 [III-173] |  |
| *** (greater than 20% Gcase activation) | +++ (Gcase activation greater than 60%) |  |  | Cc1cc(-c2ccc(F)cc2C#N)nc2c(C(=O)NC(C3CC3)C(F)(F)F)cnn12 (centres unmarked) [III-151] |  |

From patent US10934298B2, “Substituted pyrazolo[1,5-a]pyrimidines for the treatment of medical disorders” (BIAL—BioTech Investments, Inc., priority 2016, dated 2021)
